pEC50: −log10 of the molar value.
Experiments:
IRAK4 = target: T1, IRAK4 (Homo sapiens, UniProt Q9NWZ3); assay: OCI-LY-10 MSD assay for IRAK4 DC50; type: cell-based; set-up: endogenous in cells; host or cells: OCI-LY10; details: OCI-LY10 cells, 4 hr incubation, concentration required to degrade 50% of protein
T1 sequence (Q9NWZ3 1-460): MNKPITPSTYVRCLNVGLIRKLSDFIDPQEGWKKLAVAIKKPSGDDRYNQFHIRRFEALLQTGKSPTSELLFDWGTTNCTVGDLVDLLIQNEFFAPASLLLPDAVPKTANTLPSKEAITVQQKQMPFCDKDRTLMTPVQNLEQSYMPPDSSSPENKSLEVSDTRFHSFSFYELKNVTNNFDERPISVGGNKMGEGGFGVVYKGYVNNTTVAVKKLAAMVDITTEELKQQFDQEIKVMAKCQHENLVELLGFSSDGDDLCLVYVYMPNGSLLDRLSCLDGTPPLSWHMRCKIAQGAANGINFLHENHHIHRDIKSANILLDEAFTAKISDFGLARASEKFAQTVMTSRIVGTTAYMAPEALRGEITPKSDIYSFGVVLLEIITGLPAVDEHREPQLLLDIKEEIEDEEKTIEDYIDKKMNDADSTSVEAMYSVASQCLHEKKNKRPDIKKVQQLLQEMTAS
Procedure, shortened: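 OCI-Ly10 cells were exposed to compound for 4 hr across a 3-fold, 8-point dilution series. Lysates were made in RIPA buffer, and IRAK4 remaining was measured by MSD sandwich immunoassay with anti-IRAK4 capture and detection antibodies. DC50 was taken from a four-parameter logistic fit.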

OCI-LY10 cells = assay: OCI-LY-10 CTG cell viability assay (EC50); type: cell-based; details: Homo sapiens, 96 h, CellTiter-Glo cell viability, 4 days incubation, top concentration 10 μM, read-out: OCI-LY10 IRAK4 EC50
Experimental: A CTG cell viability assay using OCI-LY-10 cells was run to determine compound-mediated cell viability (EC50).
Compound-mediated viability effect on OCI-LY10 was quantitatively determined using the CellTiter-Glo® Luminescent Cell Viability Assay kit from Promega (Catalog number G7570) following manufacturer's recommended procedures. […] Compounds were then added to the assay plate with final top concentration of 10 μM and 1:3 dilution series with total of 9 doses. The final DMSO concentration was normalized to 0.2%. The assay plates were incubated at 37° C. for 4 days under 5% CO2. Then the assay plate was equilibrated at room temperature for 10 minutes. […] The data was then analyzed by software Prism 7.0 from GraphPad and the dose response curves were fit using a three-parameter logistic equation to calculate EC50.

| Structure (SMILES) | DC50 (IRAK4) | pEC50 (OCI-LY10 cells) |
| --- | --- | --- |
| Cn1ncc2nc(Nc3cnn(CCOCCOCCNc4cccc5c4C(=O)N(C4CCC(=O)NC4=O)C5=O)c3)nc(NC3CCC(N4CCOCC4)CC3)c21 (centres unmarked) [I-692] | > 1000 nM | < 6.00 |
| Cn1c(=O)n(C2CCC(=O)NC2=O)c2ccc(CCCNCC3COC4C(CNCc5ccc(-n6cc(NC(=O)c7coc(-c8ccnc(NCC9CC9)c8)n7)c(C(F)F)n6)cc5)COC34)cc21 (centres unmarked) [I-537] | < 50 nM | > 7.30 |
| Cn1c(=O)n(C2CCC(=O)NC2=O)c2ccc(N3CCN(CCOCCNCc4ccc(-n5cc(NC(=O)c6coc(-c7ccnc(NCC(F)(F)F)c7)n6)c(C(N)=O)n5)cc4)CC3)cc21 (centres unmarked) [I-564] | 100 to 500 nM | < 6.00 |
| O=C1CCC(n2c(=O)oc3c(CCCOCCOCCNCc4ccc(-n5cc(NC(=O)c6coc(-c7ccnc(NCC8CC8)c7)n6)c(C(F)F)n5)cc4)cccc32)C(=O)N1 (centres unmarked) [I-551] | < 50 nM | > 7.30 |
| O=C1CCC(n2c(=O)oc3cc(CCCOCCOCCNC(=O)c4ccc(-n5cc(NC(=O)c6coc(-c7ccnc(NCC8CC8)c7)n6)c(C(F)F)n5)cc4)ccc32)C(=O)N1 (centres unmarked) [I-462] | < 50 nM | > 7.30 |
| Cn1c(=O)n(C2CCC(=O)NC2=O)c2ccc(CCCOCCOCCNC(=O)c3ccc(-n4cc(NC(=O)c5coc(-c6ccnc(NCC7CC7)c6)n5)c(C(F)F)n4)cc3F)cc21 (centres unmarked) [I-470] | < 50 nM | > 7.30 |
| O=C1CCC(n2c(=O)oc3c(CCCN4CCO[C@H](CNCc5ccc(-n6cc(NC(=O)c7coc(-c8ccnc(NCC9CC9)c8)n7)c(C(F)F)n6)cc5)C4)cccc32)C(=O)N1 (some centres unmarked) [I-590] | < 50 nM | > 7.30 |
| CN(CCCOCCCc1cccc2c1oc(=O)n2C1CCC(=O)NC1=O)C(=O)c1ccc(-n2cc(NC(=O)c3coc(-c4ccnc(NCC5CC5)c4)n3)c(C(F)F)n2)cc1 (centres unmarked) [I-476] | < 50 nM | 6.30 to 7.00 |
| O=C1CCC(N2C[C@H](c3ccc(C#CCCOCCCNCc4ccc(-n5cc(NC(=O)c6coc(-c7ccnc(NCC8CC8)c7)n6)c(C(F)F)n5)cc4)cc3)OC2=O)C(=O)N1 (some centres unmarked) [I-580] | 50 to 100 nM | > 7.30 |
| CN[C@@H](C)C(=O)N[C@H](C(=O)N1Cc2cc(OCCOCCOCCOCCNC(=O)c3ccc(-n4cc(NC(=O)c5coc(-c6ccnc(NCC7CC7)c6)n5)c(C(F)F)n4)cc3)ccc2C[C@H]1C(=O)N[C@@H]1CCCc2ccccc21)C(C)(C)C [I-521] | > 1000 nM | < 6.00 |
| NC(=O)c1nn(-c2ccc(CNCCOCCOCCCc3ccc4c(c3)oc(=O)n4C3CCC(=O)NC3=O)cc2)cc1NC(=O)c1coc(-c2ccnc(NCC(F)(F)F)c2)n1 (centres unmarked) [I-568] | < 50 nM | 6.30 to 7.00 |
| Cn1c(=O)n(C2CCC(=O)NC2=O)c2ccc(CCCN3CCO[C@@H](CNCc4ccc(-n5cc(NC(=O)c6coc(-c7ccnc(NCC(F)(F)F)c7)n6)c(C(F)F)n5)cc4)C3)cc21 (some centres unmarked) [I-614] | 50 to 100 nM | 6.30 to 7.00 |
| Cn1c(=O)n(C2CCC(=O)NC2=O)c2ccc(CNC(=O)OCCCNCc3ccc(-n4cc(NC(=O)c5coc(-c6ccnc(NCC(F)(F)F)c6)n5)c(C(N)=O)n4)cc3)cc21 (centres unmarked) [I-563] | – | < 6.00 |
| O=C1CCC(n2c3ccc(NCCOCCOCCNCc4ccc(-n5cc(NC(=O)c6coc(-c7ccnc(NCC8CC8)c7)n6)c(C(F)F)n5)cc4)cc3c3cccnc32)C(=O)N1 (centres unmarked) [I-595] | – | 7.00 to 7.30 |
| CN(CCCOCCCc1ccc2c(c1)n(C)c(=O)n2C1CCC(=O)NC1=O)C(=O)c1ccc(-n2cc(NC(=O)c3coc(-c4ccnc(NCC(F)(F)F)c4)n3)c(C(N)=O)n2)cc1 (centres unmarked) [I-494] | – | < 6.00 |
| Cn1c(=O)n(C2CCC(=O)NC2=O)c2cccc(C#CCOCCOCCn3cc4cc(NC(=O)c5cccc(C(F)(F)F)n5)c(C(C)(C)O)cc4n3)c21 (centres unmarked) [I-688, N-[2-[2-[2-[3-[1-(2,6-dioxo-3-piperidyl)-3-methyl-2-oxo-benzimidazol-4-yl]prop-2-ynoxy]ethoxy]ethyl]-6-(1-hydroxy-1-methyl-ethyl)indazol-5-yl]-6-(trifluoromethyl)pyridine-2-carboxamide] | – | < 6.00 |
| Cn1c(=O)n(C2CCC(=O)NC2=O)c2cccc(CCCOCCNCc3ccc(-n4cc(NC(=O)c5coc(-c6ccnc(NCC(F)(F)F)c6)n5)c(C(F)F)n4)cc3)c21 (centres unmarked) [I-533] | – | 6.00 to 6.30 |
| Cn1cc(NC(=O)c2cnn3ccc(N4CCN(C(=O)COCCOCCOCCOCCNc5cccc6c5C(=O)N(C5CCC(=O)NC5=O)C6=O)CC4)nc23)c(C(F)F)n1 (centres unmarked) [I-467] | – | < 6.00 |

| Structure (SMILES) | DC50 (IRAK4) | pEC50 (OCI-LY10 cells) |
| --- | --- | --- |
| Cn1cc(NC(=O)c2coc(-c3ccnc(NCC(F)(F)F)c3)n2)c(C(=O)NC2CCN(CCOCCOCCOCCOCCCc3cccc4c3n(C)c(=O)n4C3CCC(=O)NC3=O)CC2)n1 (centres unmarked) [I-457] | – | < 6.00 |
| Cn1c(=O)n(C2CCC(=O)NC2=O)c2ccc(CCCN3CCO[C@@H](CNCc4ccc(-n5cc(NC(=O)c6cnn7ccc(N8CCNCC8)nc67)c(C(F)F)n5)cc4)C3)cc21 (some centres unmarked) [I-617] | – | 6.00 to 6.30 |
| Cn1cc(NC(=O)c2coc(-c3ccnc(NCC(F)(F)F)c3)n2)c(C(=O)NCCOCCOCCOCCOCCCc2cccc3c2n(C)c(=O)n3C2CCC(=O)NC2=O)n1 (centres unmarked) [I-455] | – | < 6.00 |
| CN1C(=O)CCC(n2c(=O)n(C)c3c(CCCOCCOCCNCc4ccc(-n5cc(NC(=O)c6coc(-c7ccnc(NCC(F)(F)F)c7)n6)c(C(N)=O)n5)cc4)cccc32)C1=O (centres unmarked) [I-544] | – | < 6.00 |
| Cn1c(=O)n(C2CCC(=O)NC2=O)c2cccc(CCCOCCOCCNCc3ccc(-n4cc(NC(=O)c5cc(C#N)ccn5)c(C(N)=O)n4)cc3)c21 (centres unmarked) [I-527] | – | < 6.00 |
| COCCOCCNCc1ccc(-n2cc(NC(=O)c3coc(-c4ccnc(NCC(F)(F)F)c4)n3)c(C(N)=O)n2)cc1 [I-597] | – | 6.30 to 7.00 |
| CN(CC(=O)N(C)CC(=O)N(C)CC(=O)N(C)CCCc1ccc2c(c1)n(C)c(=O)n2C1CCC(=O)NC1=O)Cc1ccc(-n2cc(NC(=O)c3coc(-c4ccnc(NCC(F)(F)F)c4)n3)c(C(N)=O)n2)cc1 (centres unmarked) [I-526] | – | < 6.00 |
| CN(C)CCNC(=O)c1nn(-c2ccc(C(=O)NCCCCOCCCCc3ccc4c(c3)n(C)c(=O)n4C3CCC(=O)NC3=O)cc2)cc1NC(=O)c1coc(-c2ccnc(NCC(F)(F)F)c2)n1 (centres unmarked) [I-482] | – | 6.30 to 7.00 |
| Cn1c(=O)n(C2CCC(=O)NC2=O)c2ccc(CCCN3CCO[C@@H](CCNCc4ccc(-n5cc(NC(=O)c6coc(-c7ccnc(NCC(F)(F)F)c7)n6)c(C(N)=O)n5)cc4)C3)cc21 (some centres unmarked) [I-575] | – | 6.30 to 7.00 |
| O=C1CCC(N2Cc3cc(CNC(=O)NCCOCCOCCNC(=O)n4cc(NC(=O)c5coc(-c6ccnc(NCC7CC7)c6)n5)c(C(F)F)n4)ccc3C2=O)C(=O)N1 (centres unmarked) [I-458] | – | 7.00 to 7.30 |
| CN(Cc1ccc(-n2cc(NC(=O)c3coc(-c4ccnc(NCC5CC5)c4)n3)c(C(F)F)n2)cc1)C[C@H]1CN(CCCc2ccc3c(c2)n(C)c(=O)n3C2CCC(=O)NC2=O)CCO1 (some centres unmarked) [I-598] | – | > 7.30 |
| Cn1c(=O)n(C2CCC(=O)NC2=O)c2ccc(C#CCCN3CCC(CNCc4ccc(-n5cc(NC(=O)c6coc(-c7ccnc(NCC8CC8)c7)n6)c(C(F)F)n5)cc4)CC3)cc21 (centres unmarked) [I-582] | – | > 7.30 |
| Cn1c(=O)n(C2CCC(=O)NC2=O)c2ccc(CCCOCCOCCNC(c3ccc(-n4cc(NC(=O)c5coc(-c6ccnc(NCC7CC7)c6)n5)c(C(N)=O)n4)cc3)C(F)(F)F)cc21 (centres unmarked) [I-448] | – | 6.30 to 7.00 |
| Cc1ncsc1-c1ccc(CNC(=O)[C@@H]2C[C@@H](O)CN2C(=O)[C@@H](NC(=O)CCCCCCCCCCC(=O)N2CCN(c3ccn4ncc(C(=O)Nc5cn(C)nc5C(F)F)c4n3)CC2)C(C)(C)C)cc1 [I-483] | – | < 6.00 |
| CN1C(=O)CCC(n2c(=O)n(C)c3c(CCCOCCOCCNC(=O)c4ccc(-n5cc(NC(=O)c6coc(-c7ccnc(NCC8CC8)c7)n6)c(C(F)F)n5)cc4)cccc32)C1=O (centres unmarked) [I-515] | – | 6.00 to 6.30 |
| Cn1cc(NC(=O)c2coc(-c3ccnc(NCC(F)(F)F)c3)n2)c(C(=O)NCCOCCOCCOCCCc2cccc3c2n(C)c(=O)n3C2CCC(=O)NC2=O)n1 (centres unmarked) [I-464] | – | < 6.00 |
| Cn1ncc2nc(Nc3cnn(CCOCCOCCOCCNc4cccc5c4C(=O)N(C4CCC(=O)NC4=O)C5=O)c3)nc(NC3CCC(N4CCOCC4)CC3)c21 (centres unmarked) [I-691] | – | < 6.00 |
